Results published in patent US5861300A, “Antiviral transgenic plants, vectors, cells and methods” (The Cleveland Clinic Foundation, priority 1995, dated 1999).

Tests used:
[1] = system: human 2-5A-dependent RNase (recombinant and HeLa cell); assay: uv covalent crosslinking of 2-5A probe with unlabeled oligonucleotide competitors; type: binding; conditions: competitor 100 nM; recombinant human enzyme in wheat germ extract; same pattern in HeLa cell extract
Procedure: (§1) The synthesis of the 2-5A probe, p(A2'p)2 (br^8 A2'p)2 A[32P]Cp, and its crosslinking to 2-5A-dependent RNase is performed exactly as described. See Nolan-Sorden, N. L. et al., Anal. Biochem., 184:298-304 (1990). Briefly, the 2-5A probe, about 0.7 to 2.5 nM at […], is incubated for about one hour on ice with cell extract prepared as described, Silverman, R. H. and Krause, D., I.R.L. Press, Oxford, England, pp. 149-193 (1987), in the absence or presence of unlabeled oligonucleotide competitors. Covalent crosslinking is done under a uv lamp (308 nm) for one hour on ice and the proteins are separated on SDS/10% polyacrylamide gels. Filter assays for 2-5A binding activity using the 2-5A probe for about one hour on ice, as described in Knight, M. et al., Nature, 288:189-192 (1980).

[2] = system: murine 2-5A-dependent RNase (truncated recombinant clone ZB1 and naturally occurring L929 cell enzyme); assay: as above; type: binding; conditions: for competition with 2-5A probe for binding to protein: competitor 100 nM, recombinant 74 kDa protein in wheat germ extract, similar profile with L929 cell enzyme; for concentration required to prevent 2-5A probe binding: both proteins (recombinant ZB1 and naturally occurring)
Procedure: as §1

2-5A probe = assay: 2-5A binding activity of nested 3'-deletion clones (filter binding and uv crosslinking); conditions: expressed in wheat germ extract
Procedure: The set of nested 3'-deletions of the truncated murine 2-5A-dependent RNase cDNA, ZB1, is generated with exonuclease III/S1 nuclease digestion followed by filling-in with Klenow DNA Polymerase using the "Erase-A-Base"system (Promega).
as §1

poly(U) = assay: ribonuclease assay with 2-5A-cellulose; type: biochemical; conditions: enzyme made in reticulocyte lysate, bound to 2-5A-cellulose, 30° C.
Procedure: (§2) Transcription of plasmids with phage RNA polymerases is in the presence of mGppppG as described (Promega) except that reaction mixtures are supplemented with 15% dimethyl sulfoxide and incubations are at about 37° C. for about 90 minutes. RNA is purified through Sephadex G50 spun-columns and ethanol precipitated prior to translation. Protein synthesis was performed, as described (Promega), at about 30° C. for about one hour in micrococcal nuclease-pretreated rabbit reticulocyte lysate or in an extract of wheat germ at about room temperature for about one hour and then at about […] for about 12 hours. Translation reactions contain about 50 μM zinc sulfate. […]
(§3) The ribonuclease assay with 2-5A-cellulose is performed, as described by Silverman, R. H., Anal. Biochem., 144:450-460 (1985). […] The matrix is then incubated with poly(U)-[^32 P]Cp or poly(C)-[^32 P]Cp (both at about 16 μM in nucleotide equivalents) at about 30° C. and the levels of acid-precipitable radioactive RNA are determined by filtration on glass-fiber filters.

poly(C) = assay: ribonuclease assay with 2-5A-cellulose; type: biochemical; conditions: after one hour of incubation; enzyme bound to 2-5A-cellulose
Procedure: as §2, §3

32P-2-5A probe = assay: 2-5A binding of lysine to asparagine mutants, uv crosslinking, phosphorimager analysis; conditions: wheat germ translation products; phosphorimager analysis of dried gel
Procedure: Briefly, the 2-5A probe, about 0.7 to 2.5 nM at 3,0009 Ci/mmole, is incubated for about one hour on ice with cell extract prepared as described, Silverman, R. H. and Krause, D., I.R.L. Press, Oxford, England, pp. 149-193 (1987), in the absence or presence of unlabeled oligonucleotide competitors. Covalent crosslinking is done under a uv lamp (308 nm) for one hour on ice and the proteins are separated on SDS/10% polyacrylamide gels.
The lysines in the truncated murine 2-5A-dependent RNase, clone ZB1, at positions 240 and 274 are mutated, individually and together, to asparagine residues.

(A2'p)2 A
competition with 2-5A probe for binding to protein [1]: not prevented
fold higher concentration than trimer 2-5A required to prevent probe binding ([2]; both proteins): 500 fold
competition with 2-5A probe for binding to protein [2]: fails to interfere with binding
concentration required to prevent 2-5A probe binding ([2]; probe 2.4 nM): 10 µM

p3 (A2'p)2 A
competition with 2-5A probe for binding to protein [1]: effectively competes
competition with 2-5A probe for binding to protein [2]: completely prevents probe binding
concentration that prevents the 2-5A probe from binding ([2]; probe 2.4 nM, either protein (recombinant ZB1 and naturally occurring)): about 20 nM

p3 A2'pA
concentration required to prevent 2-5A probe binding ([2]; probe 2.4 nM): > 10 µM

p3 I2'pA2'pA
concentration required to prevent 2-5A probe binding ([2]; probe 2.4 nM): about 1.0 μM

B1: ZB15: murine 2-5A-dependent RNase deletion mutant, amino acids 1 to 218, both P-loop motifs deleted (protein, UniProt Q05921 1-218, looked up, fragment)
chain: METPDYNTPQGGTPSAGSQRTVVEDDSSLIKAVQKGDVVRVQQLLEKGADANACEDTWGWTPLHNAVQAGRVDIVNLLLSHGADPHRRKKNGATPFIIAGIQGDVKLLEILLSCGADVNECDENGFTAFMEAAERGNAEALRFLFAKGANVNLRRQTTKDKRRLKQGGATALMSAAEKGHLEVLRILLNDMKAEVDARDNMGRNALIRTLLNWDCENV
2-5A binding activity relative to clone ZB1 (2-5A probe): completely lacking in 2-5A binding activity

B2: ZB14: murine 2-5A-dependent RNase deletion mutant, amino acids 1 to 265, one P-loop motif deleted (protein, UniProt Q05921 1-265, looked up, fragment)
chain: METPDYNTPQGGTPSAGSQRTVVEDDSSLIKAVQKGDVVRVQQLLEKGADANACEDTWGWTPLHNAVQAGRVDIVNLLLSHGADPHRRKKNGATPFIIAGIQGDVKLLEILLSCGADVNECDENGFTAFMEAAERGNAEALRFLFAKGANVNLRRQTTKDKRRLKQGGATALMSAAEKGHLEVLRILLNDMKAEVDARDNMGRNALIRTLLNWDCENVEEITSILIQHGADVNVRGERGKTPLIAAVERKHTGLVQMLLSREGIN
2-5A binding activity relative to clone ZB1 (2-5A probe): 1.9%

B3: ZB13: murine 2-5A-dependent RNase deletion mutant, amino acids 1 to 294 (protein, UniProt Q05921 1-294, looked up, fragment)
chain: METPDYNTPQGGTPSAGSQRTVVEDDSSLIKAVQKGDVVRVQQLLEKGADANACEDTWGWTPLHNAVQAGRVDIVNLLLSHGADPHRRKKNGATPFIIAGIQGDVKLLEILLSCGADVNECDENGFTAFMEAAERGNAEALRFLFAKGANVNLRRQTTKDKRRLKQGGATALMSAAEKGHLEVLRILLNDMKAEVDARDNMGRNALIRTLLNWDCENVEEITSILIQHGADVNVRGERGKTPLIAAVERKHTGLVQMLLSREGINIDARDNEGKTALLIAVDKQLKEIVQLLLE
2-5A binding activity relative to clone ZB1 (2-5A probe): about 38.3%

B4: ZB11: murine 2-5A-dependent RNase deletion mutant, amino acid residues 1 to 342 (protein, UniProt Q05921 1-342, looked up, fragment)
chain: METPDYNTPQGGTPSAGSQRTVVEDDSSLIKAVQKGDVVRVQQLLEKGADANACEDTWGWTPLHNAVQAGRVDIVNLLLSHGADPHRRKKNGATPFIIAGIQGDVKLLEILLSCGADVNECDENGFTAFMEAAERGNAEALRFLFAKGANVNLRRQTTKDKRRLKQGGATALMSAAEKGHLEVLRILLNDMKAEVDARDNMGRNALIRTLLNWDCENVEEITSILIQHGADVNVRGERGKTPLIAAVERKHTGLVQMLLSREGINIDARDNEGKTALLIAVDKQLKEIVQLLLEKGADKCDDLVWIARRNHDYHLVKLLLPYVANPDTDPPAGDWSPHSSRW
loss of 2-5A binding activity as compared to clone ZB1 (2-5A probe): about 26%

B5: recombinant human 2-5A-dependent RNase: full-length human 2-5A-dependent RNase translated in vitro in reticulocyte lysate (protein, UniProt Q05823 1-741, looked up)
chain: MESRDHNNPQEGPTSSSGRRAAVEDNHLLIKAVQNEDVDLVQQLLEGGANVNFQEEEGGWTPLHNAVQMSREDIVELLLRHGADPVLRKKNGATPFILAAIAGSVKLLKLFLSKGADVNECDFYGFTAFMEAAVYGKVKALKFLYKRGANVNLRRKTKEDQERLRKGGATALMDAAEKGHVEVLKILLDEMGADVNACDNMGRNALIHALLSSDDSDVEAITHLLLDHGADVNVRGERGKTPLILAVEKKHLGLVQRLLEQEHIEINDTDSDGKTALLLAVELKLKKIAELLCKRGASTDCGDLVMTARRNYDHSLVKVLLSHGAKEDFHPPAEDWKPQSSHWGAALKDLHRIYRPMIGKLKFFIDEKYKIADTSEGGIYLGFYEKQEVAVKTFCEGSPRAQREVSCLQSSRENSHLVTFYGSESHRGHLFVCVTLCEQTLEACLDVHRGEDVENEEDEFARNVLSSIFKAVQELHLSCGYTHQDLQPQNILIDSKKAAHLADFDKSIKWAGDPQEVKRDLEDLGRLVLYVVKKGSISFEDLKAQSNEEVVQLSPDEETKDLIHRLFHPGEHVRDCLSDLLGHPFFWTWESRYRTLRNVGNESDIKTRKSESEILRLLQPGPSEHSKSFDKWTTKINECVMKKMNKFYEKRGNFYQNTVGDLLKFIRNLGEHIDEEKHKKMKLKIGDPSLYFQKTFPDLVIYVYTKLQNTEYRKHFPQTHSPNKPQCDGAGGASGLASPGC
modifications: full-length
notes: full-length human 2-5A-dependent RNase translated in vitro in reticulocyte lysate
half-life of poly(U) degradation (poly(U)): about 10 minutes
poly(C) degraded (poly(C)): 20%

B6: ZB1(Lys^240,274 -)Asn): double mutant of clone ZB1, lysines 240 and 274 replaced by asparagine (protein, UniProt Q05921 1-735, looked up, variant K240N K274N)
2-5A-dependent ribonuclease: METPDYNTPQGGTPSAGSQRTVVEDDSSLIKAVQKGDVVRVQQLLEKGADANACEDTWGWTPLHNAVQAGRVDIVNLLLSHGADPHRRKKNGATPFIIAGIQGDVKLLEILLSCGADVNECDENGFTAFMEAAERGNAEALRFLFAKGANVNLRRQTTKDKRRLKQGGATALMSAAEKGHLEVLRILLNDMKAEVDARDNMGRNALIRTLLNWDCENVEEITSILIQHGADVNVRGERGNTPLIAAVERKHTGLVQMLLSREGINIDARDNEGNTALLIAVDKQLKEIVQLLLEKGADKCDDLVWIARRNHDYHLVKLLLPYVANPDTDPPAGDWSPHSSRWGTALKSLHSMTRPMIGKLKIFIHDDYKIAGTSEGAVYLGIYDNREVAVKVFRENSPRGCKEVSCLRDCGDHSNLVAFYGREDDKGCLYVCVSLCEWTLEEFLRLPREEPVENGEDKFAHSILLSIFEGVQKLHLHGYSHQDLQPQNILIDSKKAVRLADFDQSIRWMGESQMVRRDLEDLGRLVLYVVMKGEIPFETLKTQNDEVLLTMSPDEETKDLIHCLFSPGENVKNCLVDLLGHPFFWTWENRYRTLRNVGNESDIKVRKCKSDLLRLLQHQTLEPPRSFDQWTSKIDKNVMDEMNHFYEKRKKNPYQDTVGDLLKFIRNIGEHINEEKKRGMKEILGDPSRYFQETFPDLVIYIYKKLKETEYRKHFPQPPPRLSVPEAVGPGGIQS
2-5A binding activity relative to clone ZB1 (control) (32P-2-5A probe): 12.2%
